The text below walks through data of patent publication US7468391B2, “Methods for treating retinoid responsive disorders using selective inhibitors of CYP26A and CYP26B” (Allergan, Inc., priority 2003, dated 2008).

As usually defined, the IC50 is the concentration at which inhibition is half-maximal. As usually defined, the Kd is a measure of binding affinity in units of concentration. Lower therefore signals tighter binding.

In one test the target is T1, CYP26A (P450RAI-1) (Homo sapiens, UniProt O43174).
T1 construct: expressed in transfected cells; host or cells: HeLa
T1 sequence (O43174 1-497): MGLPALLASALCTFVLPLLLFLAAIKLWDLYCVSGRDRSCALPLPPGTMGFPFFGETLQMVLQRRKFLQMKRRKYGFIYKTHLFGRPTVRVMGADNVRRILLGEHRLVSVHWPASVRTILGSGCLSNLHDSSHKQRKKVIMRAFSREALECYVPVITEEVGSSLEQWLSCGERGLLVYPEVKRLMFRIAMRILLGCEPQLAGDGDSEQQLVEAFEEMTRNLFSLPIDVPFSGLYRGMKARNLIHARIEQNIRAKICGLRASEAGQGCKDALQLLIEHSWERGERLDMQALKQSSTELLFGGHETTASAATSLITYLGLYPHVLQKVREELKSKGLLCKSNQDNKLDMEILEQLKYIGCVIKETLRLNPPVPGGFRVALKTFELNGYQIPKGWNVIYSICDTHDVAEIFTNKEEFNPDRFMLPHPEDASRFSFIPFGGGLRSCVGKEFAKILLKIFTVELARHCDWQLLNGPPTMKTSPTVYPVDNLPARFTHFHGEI
As to the kind of experiment: Cell-based inhibition of RA metabolism in CYP26A stably transfected HeLa cells. The following applies: stably transfected HeLa cells, [3H]-RA, 3 hours at 37° C.; read-out: P450RAI-1 Whole cell IC50. A digest of the protocol: (§1)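 Stably transfected HeLa cells (5×10^5/well) in MEM with 10% FBS and 0.05 μCi [3H]-RA, compounds at 10, 1 or 0.1 μM final, 3 h at 37° C. Retinoids extracted by modified Bligh-Dyer (methylene chloride); aqueous radioactivity counted; ID50 for 50% inhibition of RA metabolism derived from log-transformed data.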

The target in a further test is T2, CYP26B (P450RAI-2) (Homo sapiens, UniProt Q9NR63).
T2 construct: expressed in transfected cells; host or cells: HeLa
T2 sequence (Q9NR63 1-512): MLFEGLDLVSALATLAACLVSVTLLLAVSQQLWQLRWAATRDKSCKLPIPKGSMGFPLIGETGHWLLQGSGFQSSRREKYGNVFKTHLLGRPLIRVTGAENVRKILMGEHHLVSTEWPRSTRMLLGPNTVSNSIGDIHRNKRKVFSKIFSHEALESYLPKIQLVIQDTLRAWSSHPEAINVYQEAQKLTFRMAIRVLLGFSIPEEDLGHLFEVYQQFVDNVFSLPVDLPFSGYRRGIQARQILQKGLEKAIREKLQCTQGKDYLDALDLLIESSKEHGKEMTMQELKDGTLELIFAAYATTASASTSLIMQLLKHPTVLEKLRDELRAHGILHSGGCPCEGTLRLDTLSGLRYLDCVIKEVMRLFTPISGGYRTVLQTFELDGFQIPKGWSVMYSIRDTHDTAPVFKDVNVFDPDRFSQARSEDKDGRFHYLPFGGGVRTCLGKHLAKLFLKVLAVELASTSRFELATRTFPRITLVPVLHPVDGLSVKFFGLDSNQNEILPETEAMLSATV
As to the kind of experiment: Cell-based inhibition of RA metabolism in CYP26B stably transfected HeLa cells. Particulars: stably transfected HeLa cells, [3H]-RA, 3 hours at 37° C.; read-out: P450RAI-2 Whole cell IC50. A digest of the protocol: as §1

For test [1], the target named is T3, RAR β (Homo sapiens, UniProt P10826).
T3 sequence (P10826 1-455): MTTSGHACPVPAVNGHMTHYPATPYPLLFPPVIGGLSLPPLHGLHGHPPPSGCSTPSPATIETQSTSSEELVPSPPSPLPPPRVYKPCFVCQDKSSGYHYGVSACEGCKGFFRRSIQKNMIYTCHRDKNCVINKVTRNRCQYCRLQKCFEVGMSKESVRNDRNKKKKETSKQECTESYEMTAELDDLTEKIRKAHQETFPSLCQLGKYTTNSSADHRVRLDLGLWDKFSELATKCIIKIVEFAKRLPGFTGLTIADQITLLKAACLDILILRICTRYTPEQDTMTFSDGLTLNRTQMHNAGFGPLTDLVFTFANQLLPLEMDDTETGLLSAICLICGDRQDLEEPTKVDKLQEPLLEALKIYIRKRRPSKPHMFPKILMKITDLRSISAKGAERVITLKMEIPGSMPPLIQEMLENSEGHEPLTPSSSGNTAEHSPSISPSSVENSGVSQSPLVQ
As to the kind of experiment: RAR β EC50/(efficacy). It counts as cell-based. Particulars: value in brackets of cell EC50/(EFFICACY)/Kd.

The next test addresses T4, RAR α (Homo sapiens, UniProt P10276).
T4 sequence (P10276 1-462): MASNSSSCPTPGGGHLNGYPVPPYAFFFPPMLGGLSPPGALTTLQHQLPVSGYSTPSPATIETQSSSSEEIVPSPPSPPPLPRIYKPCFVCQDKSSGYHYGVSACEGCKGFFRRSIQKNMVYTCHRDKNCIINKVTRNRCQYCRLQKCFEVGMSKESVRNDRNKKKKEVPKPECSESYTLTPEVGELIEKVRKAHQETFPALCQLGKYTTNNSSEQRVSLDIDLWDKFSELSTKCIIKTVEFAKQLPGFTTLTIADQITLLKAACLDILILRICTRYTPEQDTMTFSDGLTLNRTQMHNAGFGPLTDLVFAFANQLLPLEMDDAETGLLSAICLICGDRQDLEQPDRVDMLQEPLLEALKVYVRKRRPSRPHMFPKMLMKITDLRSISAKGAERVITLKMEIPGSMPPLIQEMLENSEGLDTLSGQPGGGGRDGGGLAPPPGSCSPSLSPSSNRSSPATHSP
As to the kind of experiment: RAR α Kd. It is filed as binding. The following applies: last item of cell EC50/(EFFICACY)/Kd.

Test [2] addresses T3, RAR β. The experiment in a line: RAR β Kd. It counts as binding. The following applies: last item of cell EC50/(EFFICACY)/Kd.
In a further test the target is T5, RAR γ (Homo sapiens, UniProt P13631).
T5 sequence (P13631 1-454): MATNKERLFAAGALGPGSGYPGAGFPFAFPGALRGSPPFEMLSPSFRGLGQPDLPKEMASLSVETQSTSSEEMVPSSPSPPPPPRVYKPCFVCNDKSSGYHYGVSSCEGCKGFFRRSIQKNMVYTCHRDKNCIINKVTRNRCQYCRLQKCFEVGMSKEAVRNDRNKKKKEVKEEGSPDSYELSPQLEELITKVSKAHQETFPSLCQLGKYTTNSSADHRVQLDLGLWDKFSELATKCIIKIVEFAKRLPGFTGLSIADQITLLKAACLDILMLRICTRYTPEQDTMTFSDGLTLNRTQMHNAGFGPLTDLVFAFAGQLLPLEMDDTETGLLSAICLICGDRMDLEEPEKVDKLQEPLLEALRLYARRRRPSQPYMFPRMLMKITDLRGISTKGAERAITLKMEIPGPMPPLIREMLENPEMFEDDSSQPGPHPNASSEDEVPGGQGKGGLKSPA
As to the kind of experiment: RAR γ Kd. Particulars: last item of cell EC50/(EFFICACY)/Kd. It is filed as binding.

For the compound `CC1(C)CC(C)(C)c2cc(C#Cc3ccc(CC(=O)O)c(F)c3)cc(O)c2O1` [Compound 10, [2-Fluoro-4-(8-hydroxy-2,2,4,4-tetramethyl-chroman-6-ylethynyl)-phenyl]-acetic acid], the figures for the IC50 on CYP26A (P450RAI-1) and on CYP26B (P450RAI-2) were 0.07 µM and 0.7 µM, respectively. Further, on RAR β [1], the “RAR β (EFFICACY)” value worked out at 15. The Kd at RAR α, at RAR β [2] and at RAR γ was > 10 µM throughout.

As to `C=Cc1cc(C#Cc2ccc(CC(=O)O)cc2)cc2c1C(=O)CCC2(C)C` [Compound 22, [4-(8,8-Dimethyl-5-oxo-4-vinyl-5,6,7,8-tetrahydro-naphthalen-2-ylethynyl)-phenyl]-acetic acid], the values for the IC50 on CYP26A (P450RAI-1) and on CYP26B (P450RAI-2) were 0.007 µM and 0.2 µM, respectively. Further, the “RAR β (EFFICACY)” value on RAR β [1] is 15. For the same compound, the Kd at RAR α, on RAR β [2] and on RAR γ was > 10 µM throughout.

With `CCOC(=O)c1cc(C#Cc2ccc(CC(=O)O)cc2)cc2c1C(N(C)C1CC1)CCC2(C)C` (stereo not drawn) [Compound 24, 3-(4-Carboxymethyl-phenylethynyl)-8-(cyclopropyl-methyl-amino)-5,5-dimethyl-5,6,7,8-tetrahydro-naphthalene-1-carboxylic acid ethyl ester], the IC50 at CYP26A (P450RAI-1) amounted to 0.035 µM; at CYP26B (P450RAI-2), 5 µM. Also, the “RAR β (EFFICACY)” value on RAR β [1] was determined as 30. For the same compound, the Kd came out at 8.57 µM at RAR α, 7.19 µM at RAR β [2] and 7.75 µM on RAR γ.

As for `COc1cc(C#Cc2ccc(CC(=O)O)c(F)c2)cc2c1C(N(C)C1CC1)CCC2(C)C` (stereo not drawn) [Compound 26, {4-[5-(Cyclopropyl-methyl-amino)-4-methoxy-8,8-dimethyl-5,6,7,8-tetrahydro-naphthalen-2-ylethynyl]-2-fluoro-phenyl}-acetic acid], the IC50 was determined as 0.018 µM at CYP26A (P450RAI-1) and 5 µM on CYP26B (P450RAI-2). Also, the “RAR β (EFFICACY)” value on RAR β [1] was 25. In addition, the Kd at RAR α is > 10 µM; on RAR β [2] it was > 10 µM; on RAR γ, 1.12 µM.

With `COc1cc(C#CC2=CCC(/C=C(\C)C(=O)O)C=C2)cc2c1C(N(C)C1CC1)CCC2(C)C` (stereo not drawn) [Compound 30, (E)-3-{4-[5-(Cyclopropyl-methyl-amino)-4-methoxy-8,8-dimethyl-5,6,7,8-tetrahydro-naphthalen-2-ylethynyl]-cyclohexa-2,4-dienyl}-2-methyl-acrylic acid], the values for the IC50 on CYP26A (P450RAI-1) and on CYP26B (P450RAI-2) were 0.18 µM and > 10 µM, respectively. Moreover, on RAR β [1], the “RAR β (EFFICACY)” value came to 15. Also, the Kd at RAR α, at RAR β [2] and on RAR γ was > 10 µM in each case.

As to `CN(Cc1cccc(C#Cc2ccc(/C=C/C(=O)O)cc2)c1)C1CC1` [Compound 31, (E)-3-(4-{3-[(Cyclopropyl-methyl-amino)-methyl]-phenylethynyl}-phenyl)-acrylic acid], the figures for the IC50 on CYP26A (P450RAI-1) and at CYP26B (P450RAI-2) were > 10 µM and 0.6 µM, respectively. For the same compound, the “RAR β (EFFICACY)” value at RAR β [1] is given as 25. Besides, the Kd on RAR α, at RAR β [2] and on RAR γ was > 10 µM in each case.

For the compound `Cc1ccc(CN(C)C2CC2)cc1C#Cc1ccc(/C=C/C(=O)O)cc1` [Compound 34, (E)-3-(4-{5-[(Cyclopropyl-methyl-amino)-methyl]-2-methyl-phenylethynyl}-phenyl)-acrylic acid], the IC50 on CYP26A (P450RAI-1) is > 10 µM; at CYP26B (P450RAI-2) it was 0.12 µM. Also, the “RAR β (EFFICACY)” value on RAR β [1] is recorded as 20. The dissociation constant (Kd) on RAR α was 5.65 µM; on RAR β [2] it was 3.49 µM; on RAR γ it was 8.53 µM.

With `CC(C(=O)O)c1ccc(C#Cc2ccc3c(c2)C(C)(C)CCC3N(C)C2CC2)cc1` (stereo not drawn) [Compound 51, 2-{4-[5-(Cyclopropyl-methyl-amino)-8,8-dimethyl-5,6,7,8-tetrahydro-naphthalen-2-ylethynyl]-phenyl}-propionic acid], the figures for the IC50 on CYP26A (P450RAI-1) and on CYP26B (P450RAI-2) were 0.2 µM and > 10 µM, respectively. Besides, the “RAR β (EFFICACY)” value on RAR β [1] was determined as 5. For the same compound, the Kd on RAR α, at RAR β [2] and on RAR γ was > 10 µM throughout.

In the case of `CN(C1CC1)C1CCC(C)(C)c2cc(C#Cc3ccc(C(C)(C)C(=O)O)cc3)ccc21` (stereo not drawn) [Compound 52, 2-{4-[5-(Cyclopropyl-methyl-amino)-8,8-dimethyl-5,6,7,8-tetrahydro-naphthalen-2-ylethynyl]-phenyl}-2-methyl-propionic acid], the figures for the IC50 on CYP26A (P450RAI-1) and on CYP26B (P450RAI-2) were 0.4 µM and > 10 µM, respectively. The “RAR β (EFFICACY)” value on RAR β [1] is given as < 5. Moreover, the Kd on RAR α, on RAR β [2] and at RAR γ was > 10 µM throughout.

Turning to `CCOC(=O)C1=C(C)CC(C)(C)c2cc(C#Cc3ccc(CC(=O)O)cc3)ccc21` [Compound 58, 6-(4-Carboxymethyl-phenylethynyl)-2,4,4-trimethyl-3,4-dihydro-naphthalene-1-carboxylic acid ethyl ester], the IC50 at CYP26A (P450RAI-1) was 3.5 µM; at CYP26B (P450RAI-2), > 10 µM. In addition, on RAR β [1], the “RAR β (EFFICACY)” value was 25. In addition, the Kd at RAR α was > 10 µM; at RAR β [2] it was 4.61 µM; on RAR γ it was > 10 µM.

For the compound `CCOC(=O)C1=C(C)CC(C)(C)c2cc(C#Cc3ccc(CC(=O)O)c(F)c3)ccc21` [Compound 59, 6-(4-Carboxymethyl-3-fluoro-phenylethynyl)-2,4,4-trimethyl-3,4-dihydro-naphthalene-1-carboxylic acid ethyl ester], the IC50 at CYP26A (P450RAI-1) is 1.2 µM; at CYP26B (P450RAI-2) it was > 10 µM. Also, the “RAR β (EFFICACY)” value at RAR β [1] amounted to 35. The values for the Kd on RAR α, on RAR β [2] and at RAR γ were > 10 µM, 2.86 µM and > 10 µM, respectively.
